Data taken from ChEMBL document CHEMBL3272056, “Synthesis of N-hydroxythiourea” (J Med Chem, 1976).
Calls of active or inactive are those of the source. The calls are words filed in the database; no cut-off is given here.

Test system: L1210
Assay: Antitumor activity against mouse L1210 cells at 400 mg/kg, ip
Assay type: functional, organism-based
Design: dose 400 mg/kg

NC(=S)NO
Activity: inactive
